Where two headings read alike, the source gives them in different places.

For assay [1], the system named is intracellular Ca^2+ stores. Put plainly: Ca2+ release from intracellular stores (FURA-2AM loaded cells). Format: cell-based. Also on record: key to Ca^2+ (Ca^2+ release from intracellular stores): a “+” denotes release; a “+/−” denotes inconclusive. The text has this:
As a non-limiting example, compounds 1272 and 1273 (set forth in Table 1) were synthesized starting from 3-bromoaniline, which upon condensation with hydroxylamine and chloral hydrate followed by concentrated sulfuric acid yielded an inseparable regioisomeric mixture of 4- and 6-bromo isatins. The addition of the two phenyl groups to the three position of the oxindole allowed easy chromatographic separation of the 4- and 6-bromo-3,3-diphenyloxindoles 1272 and 1273. Table 1 sets forth biological data for diaryloxindole compounds including, but not limited to 1272 and 1273. For Tables 1-14, Ca^2+ refers to Ca^2+ release from intracellular stores where a “+” denotes release and a “+/−” denotes inconclusive; eIF2α-P refers to phosphorylation of eIF2α measured by Western blot; SRB refers to the inhibitory concentration to reduce cell growth by 50% (IC50) for growth inhibition of A549 lung cancer cells; and n.d. is not determined.
Without intending to be bound by theory, the mechanism of action of translation initiation inhibitors is set forth in FIG. 1, and includes the depletion (complete or partial depletion) of intracellular calcium (Ca^2+) stores and phosphorylation of eIF2α. Compounds synthesized using the approaches described herein were screened for their ability to partially deplete intracellular Ca^2+ stores using FURA-2AM loaded cells (Benzaquen et al. (1995) Nature Medicine, 1:534, incorporated herein by reference in its entirety for all purposes). A limited subset of compounds were further screened for their ability to deplete endoplasmic reticulum (ER) Ca^2+. The Ca^2+ content of the ER was monitored using ER-targeted, Ca^2+ sensitive, recombinant proteins. These recombinant proteins emitted light by fluorescent resonance energy transfer (FRET) as a function of the Ca^2+ content of the medium. Such assays are previously described (Miyawaki, A.; Mizuno, H.; Llopis, J.; Tsien, R. Y.; Jalink, K. Cameleons as cytosolic and intra-organellar calcium probes, Oxford University Press: Oxford, London, 2001; pp 3-16, incorporated herein by reference in its entirety for all purposes). Compounds that depleted Ca^2+ were further evaluated for their ability to phosphorylate eIF2α. eIF2α phosphorylation was measured by Western blot analysis using the phospho-specific anti-eIF2α antibody, as previously described (Aktas et al. (1998) Proc. Natl. Acad. Sci. USA, 95:8280, incorporated herein by reference in its entirety for all purposes).

The test system of assay [2] is A549 lung cancer cells. Put plainly: SRB growth inhibition of A549 lung cancer cells. Format: cell-based, human. To be noted: A549 lung cancer cells, unit inferred, read-out: SRB (IC50 for growth inhibition of A549 lung cancer cells). The text has this: As a non-limiting example, compounds 1272 and 1273 (set forth in Table 1) were synthesized starting from 3-bromoaniline, which upon condensation with hydroxylamine and chloral hydrate followed by concentrated sulfuric acid yielded an inseparable regioisomeric mixture of 4- and 6-bromo isatins. The addition of the two phenyl groups to the three position of the oxindole allowed easy chromatographic separation of the 4- and 6-bromo-3,3-diphenyloxindoles 1272 and 1273. Table 1 sets forth biological data for diaryloxindole compounds including, but not limited to 1272 and 1273. For Tables 1-14, Ca^2+ refers to Ca^2+ release from intracellular stores where a “+” denotes release and a “+/−” denotes inconclusive; eIF2α-P refers to phosphorylation of eIF2α measured by Western blot; SRB refers to the inhibitory concentration to reduce cell growth by 50% (IC50) for growth inhibition of A549 lung cancer cells; and n.d. is not determined. […]

For `CC(C)(C)c1ccc(S(=O)(=O)Nc2cc(O)ccc2C2(c3ccccc3)C(=O)Nc3ccccc32)cc1` (stereo not drawn) [Compound 1623], the “Ca^2+ (Ca^2+ release from intracellular stores)” value in assay [1] is on record as “+”. In addition, in assay [2], the IC50 is below 1 µM. The matching figures for `C=CCOCN1C(=O)C(c2ccccc2)(c2cc(C(C)(C)C)ccc2O)c2ccccc21` (stereo not drawn) [Compound 1227]: “+” and 3 µM.

In the case of `CC(C)(C)c1ccc(OC(=O)CCCCCCC(=O)O)c(C2(c3ccccc3)C(=O)Nc3ccccc32)c1` (stereo not drawn) [Compound 1321], in assay [1], the “Ca^2+ (Ca^2+ release from intracellular stores)” value was “+”. Further, the IC50 in assay [2] is 16 µM. On to `O=C1N(S(=O)(=O)c2ccc(Oc3ccccc3)cc2)c2ccccc2C1(c1ccccc1)c1ccccc1` [Compound 1307], for which the half-inhibitory concentration (IC50) in assay [2] is above 20 µM.

As for `CCCCOc1ccc(S(=O)(=O)N2C(=O)C(c3ccccc3)(c3ccccc3)c3ccccc32)cc1` [Compound 1306], in assay [2], the IC50 was above 20 µM. With `CC(C)(C)c1cccc(C2(c3ccc(O)cc3)C(=O)Nc3ccccc32)c1` (stereo not drawn) [Compound 1232], the “Ca^2+ (Ca^2+ release from intracellular stores)” value in assay [1] is reported as “+”. The IC50 in assay [2] was found to be 4 µM. For `O=C1Nc2ccccc2C1(c1ccccc1)c1cc(O)ccc1O` (stereo not drawn) [Compound 1201], the “Ca^2+ (Ca^2+ release from intracellular stores)” value in assay [1] is recorded as “+”. `O=C1N(c2ccccc2)c2ccccc2C1(c1ccccc1)c1ccccc1` [Compound 1300]: in assay [2], the IC50 came to 8 µM. As for `CC(C)(C)c1ccc(S(=O)(=O)N2C(=O)C(c3ccccc3)(c3ccccc3)c3ccccc32)cc1` [Compound 1311], in assay [2], the IC50 was 11 µM. As to `CC(C)(C)c1ccc(O)c(C2(c3cc(C(C)(C)C)ccc3O)C(=O)Nc3ccccc32)c1` [Compound 1195], in assay [1], the “Ca^2+ (Ca^2+ release from intracellular stores)” value is “+”. Further, the IC50 in assay [2] turned out to be 3 µM. In the case of `CC(=O)Nc1ccc(S(=O)(=O)N2C(=O)C(c3ccccc3)(c3ccccc3)c3ccccc32)cc1` [Compound 1308], the IC50 in assay [2] amounted to 11 µM. With `C=CCN1C(=O)C(c2ccccc2)(c2ccccc2)c2ccccc21` [Compound 1303], the “Ca^2+ (Ca^2+ release from intracellular stores)” value in assay [1] is recorded as “+/−”. The IC50 in assay [2] was 15 µM. On to `O=C1Nc2ccccc2C1(c1cccc(F)c1)n1ccnc1` (stereo not drawn) [Compound 1316], for which the IC50 in assay [2] was above 20 µM. With `CCCc1ccc(C2(c3ccccc3)C(=O)Nc3ccccc32)cc1` (stereo not drawn) [Compound 1296], the “Ca^2+ (Ca^2+ release from intracellular stores)” value in assay [1] was “+”. The IC50 in assay [2] turned out to be 11 µM.

In the case of `NCCCCOc1ccc(O)c(C2(c3ccccc3)C(=O)Nc3ccccc32)c1` (stereo not drawn) [Compound 1228], the “Ca^2+ (Ca^2+ release from intracellular stores)” value in assay [1] is “+”. Further, the IC50 in assay [2] is 5 µM.

Turning to `O=C1NC(=O)C(Cc2ccc(O)c(C3(c4ccccc4)C(=O)Nc4ccccc43)c2)S1` (stereo not drawn) [Compound 1220], the “Ca^2+ (Ca^2+ release from intracellular stores)” value in assay [1] was “+/−”. The IC50 in assay [2] is 16 µM. For the molecule `O=C1Nc2ccccc2C1(c1ccccc1)c1cc(OCCCCBr)ccc1O` (stereo not drawn) [Compound 1203], the “Ca^2+ (Ca^2+ release from intracellular stores)” value in assay [1] is listed as “+”. The IC50 in assay [2] was determined as 8 µM.

With `COC(=O)C(N)Cc1ccc(O)c(C2(c3ccccc3)C(=O)Nc3ccccc32)c1` (stereo not drawn) [Compound 1171], in assay [1], the “Ca^2+ (Ca^2+ release from intracellular stores)” value is “+”. Take `CN(C)CCCCOc1cccc(C2(c3ccccc3)C(=O)Nc3ccccc32)c1O` (stereo not drawn) [Compound 1199]: the “Ca^2+ (Ca^2+ release from intracellular stores)” value in assay [1] is recorded as “+”. Moreover, the IC50 in assay [2] was above 20 µM. The corresponding values for `COc1ccc(C2(c3ccc(OC)cc3O)C(=O)Nc3ccccc32)c(O)c1` [Compound 1163] are “+” and 10 µM. The matching figures for `CC(C)(C)c1ccc(O)c(C2(c3ccccc3)C(=O)Nc3cccc(Cl)c32)c1` (stereo not drawn) [Compound 1428]: “+” and 3 µM. As for `CC(C)(C)c1ccc(OS(=O)(=O)CC23CCC(CC2=O)C3(C)C)c(C2(c3ccccc3)C(=O)Nc3ccccc32)c1` (stereo not drawn) [Compound 1319], the “Ca^2+ (Ca^2+ release from intracellular stores)” value in assay [1] is given as “+”. The IC50 in assay [2] was found to be 2 µM. For `O=C1Nc2ccccc2C1(c1ccc(O)cc1)c1ccc(-c2ccccc2)cc1` (stereo not drawn) [Compound 1261], the “Ca^2+ (Ca^2+ release from intracellular stores)” value in assay [1] is on record as “+”. Also, the IC50 in assay [2] was 10 µM. The matching figures for `CC(C)(C)c1ccc(S(=O)(=O)Nc2ccc(O)c(C3(c4ccccc4)C(=O)Nc4ccccc43)c2)cc1` (stereo not drawn) [Compound 1638]: “+” and 3 µM. For `[N-]=[N+]=NCCCCOc1cccc(C2(c3ccccc3)C(=O)Nc3ccccc32)c1O` (stereo not drawn) [Compound 1200], the “Ca^2+ (Ca^2+ release from intracellular stores)” value in assay [1] is on record as “+”. Further, the IC50 in assay [2] came to 3 µM. The corresponding values for `CC(C)(C)c1ccc(O)c(C2(c3c(F)c(F)c(F)c(F)c3F)C(=O)Nc3ccccc32)c1` (stereo not drawn) [Compound 1328] are “+” and 3 µM. For the molecule `O=C1N(CO)c2ccccc2C1(c1ccccc1)c1ccccc1` [Compound 1304], the IC50 in assay [2] turned out to be 10 µM.

In the case of `CC(C)(C)c1ccc2c(c1)C1(c3ccccc3)C(=O)N(C/C=C\CO2)c2ccccc21` (stereo not drawn) [Compound 1291], the IC50 in assay [2] (Homo sapiens) was above 20 µM.

In the case of `CC(C)(C)c1ccc(O)c(C2(c3ccccc3)C(=O)N(c3ccccc3)c3ccccc32)c1` (stereo not drawn) [Compound 1255], in assay [2], the IC50 was determined as 4 µM. As for `O=C1Nc2ccccc2C1(c1ccc(O)cc1)c1ccc(O)cc1` [Compound 1259], in assay [2], the IC50 was above 20 µM. As to `Cc1cc2c(c(C3(c4ccccc4)C(=O)Nc4ccccc43)c1)NCC2` (stereo not drawn) [Compound 1313], the “Ca^2+ (Ca^2+ release from intracellular stores)” value in assay [1] is listed as “+”. The IC50 in assay [2] (Homo sapiens) was above 20 µM. Regarding `O=C1Nc2ccccc2C1(c1ccccc1)c1cc(C(F)(F)F)ccc1O` (stereo not drawn) [Compound 1243], the IC50 in assay [2] was above 20 µM. On to `CC(C)(C)c1ccc(O)c(C2(c3ccccc3)C(=O)Nc3cc(Cl)ccc32)c1` (stereo not drawn) [Compound 1429], for which the “Ca^2+ (Ca^2+ release from intracellular stores)” value in assay [1] is recorded as “+”. In addition, the IC50 in assay [2] was 3 µM. As to `Cc1cc(O)c(NS(=O)(=O)c2ccc(C(C)(C)C)cc2)cc1C1(c2ccccc2)C(=O)Nc2ccccc21` (stereo not drawn) [Compound 1648], the “Ca^2+ (Ca^2+ release from intracellular stores)” value in assay [1] is given as “+”.

In the case of `Cc1cc(C2(c3ccccc3)C(=O)Nc3ccccc32)c(NS(C)(=O)=O)cc1O` (stereo not drawn) [Compound 1427], the “Ca^2+ (Ca^2+ release from intracellular stores)” value in assay [1] was “+”. In addition, the 50% inhibitory concentration (IC50) in assay [2] was 14 µM. The matching figures for `CC(C)(C)c1ccc(O)c(C2(c3ccccc3)C(=O)Nc3ccc(N=[N+]=[N-])cc32)c1` (stereo not drawn) [Compound 1348]: “+” and 3 µM. As for `CC(C)(C)c1ccc(O)c(C2(c3ccccc3)C(=O)Nc3ccc(F)cc32)c1` (stereo not drawn) [Compound 1312], the “Ca^2+ (Ca^2+ release from intracellular stores)” value in assay [1] is reported as “+”. In addition, in assay [2], the concentration for half-maximal inhibition (IC50) amounted to 4 µM. As for `CC(C)(C)c1ccc(O)c(C2(c3ccccc3)C(=O)N(CC(=O)O)c3ccccc32)c1` (stereo not drawn) [Compound 1339], the IC50 in assay [2] is above 20 µM. Same read-out and setting: to `O=C1Nc2ccccc2C1(c1ccccc1)n1ccnc1` (stereo not drawn) [Compound 1315] belongs above 20 µM; to `COc1ccc(C2(c3ccccc3)C(=O)Nc3ccccc32)c(CC(=O)O)c1` (stereo not drawn) [Compound 1327], above 20 µM. Same read-out and setting: then `O=C1N(Cc2ccc(Cl)cc2)c2ccccc2C1(c1ccccc1)c1ccccc1` [Compound 1302], with 14 µM. Consider `CN1C(=O)C(c2ccccc2)(c2ccccc2)c2ccccc21` [Compound 1301], for which the “Ca^2+ (Ca^2+ release from intracellular stores)” value in assay [1] is listed as “+”. With `Cc1cccc(C2(n3ccnc3)C(=O)Nc3ccccc32)c1` (stereo not drawn) [Compound 1317], the IC50 in assay [2] was above 20 µM. As for `CC(C)(C)c1ccc(OCC#N)c(C2(c3ccccc3)C(=O)N(CC#N)c3ccccc32)c1` (stereo not drawn) [Compound 1320], the IC50 in assay [2] (Homo sapiens) came to 4 µM. `Cc1cc(C2(c3ccccc3)C(=O)Nc3c(C(=O)O)cccc32)c(NS(=O)(=O)c2ccc(C(C)(C)C)cc2)cc1O` (stereo not drawn) [Compound 1431]: the IC50 in assay [2] was above 20 µM. The same measure, in the same setting: to `CC(=O)Nc1cc(O)c(C)cc1C1(c2ccccc2)C(=O)Nc2ccccc21` (stereo not drawn) [Compound 1639] belongs above 20 µM.
